Results published in patent US6440974B2, “Compounds useful for inhibition of farnesyl protein transferase” (Schering Corporation, priority 1997, dated 2002).

How the values were obtained:
[1] = biological target: farnesyl protein transferase (Homo sapiens, UniProt P49354+P49356); test: FPT IC50 (inhibition of farnesyl protein transferase, in vitro enzyme assay); assay type: biochemical
Experimental: (§1) FPT IC50 (inhibition of famesyl protein transferase, in vitro enzyme assay) and COS Cell IC50 (Cell-Based Assay) were determined following the assay procedures described in WO 95/10516, published Apr. 20, 1995. GGPIT IC50 (inhibition of geranylgeranyl protein transferase, in vitro enzyme assay), Cell Mat Assay, and anti-tumor activity (in vivo anti-tumor studies) could be determined by the assay procedures described in WO 95/10516. The disclosure of WO 95/10516 is incorporated herein by reference thereto.

COS Cell = COS Cell IC50 (Cell-Based Assay); settings: for IC50: cell-based assay
Experimental: as §1

Human tumor cells = test: Soft Agar Assay (anchorage-independent growth); assay type: cell-based
Experimental: Anchorage-independent growth is a characteristic of tumorigenic cell lines. Human tumor cells can be suspended in growth medium containing 0.3% agarose and an indicated concentration of a farnesyl transferase inhibitor. The solution can be overlayed onto growth medium solidified with 0.6% agarose containing the same concentration of farnesyl transferase inhibitor as the top layer. After the top layer is solidified, plates can be incubated for 10-16 days at 37° C. under 5% CO2 to allow colony outgrowth. After incubation, the colonies can be stained by overlaying the agar with a solution of MTT (3-[4,5-dimethylthiazol-2-yl]-2,5-diphenyltetrazolium bromide, Thiazolyl blue) (1 mg/mL in PBS). Colonies can be counted and the IC50's can be determined.

Row | SMILES | IC50 [1] | IC50 (COS Cell) | melting point | IC50 (COS Cell; COS) | COS Cell, percent at given concentration (printed in the COS Cell IC50 column) (COS Cell; @ 10 nM) | IC50 (Human tumor cells)
1 | O=C(C1CC2CCC1CO2)N1CCC(C2c3ncc(Br)cc3CCc3cc(Cl)cc(Br)c32)CC1 (single isomer, unassigned) [Example 29] | 6.7 nM | 30 nM | 152 to 164 °C (dec.) |  |  | 
2 | O=C(C1CC2CCC1CO2)N1CCC(C2c3ncc(Br)cc3CCc3cc(Cl)cc(Br)c32)CC1 (single isomer, unassigned) [Example 30] | 7.5 nM | 75 nM | 151 to 159 °C (dec.) |  |  | 
3 | O=C(CC1CCOCC1)N1CCC([C@H]2c3ncc(Br)cc3CCc3cc(Cl)cc(Br)c32)CC1 [Example 1] |  |  | 83.2 to 88.7 °C |  |  | 
4 | O=C(CC1=CCOCC1)N1CCC(C2c3ncc(Br)cc3CCc3cc(Cl)cc(Br)c32)CC1 (centres unmarked) [Example 3] | 6.1 nM |  | 110.3 to 113.9 °C |  |  | 
5 | O=C(CC1COCCO1)N1CCC(C2c3ncc(Br)cc3CCc3cc(Cl)cc(Br)c32)CC1 (centres unmarked) [Example 6] | 23 nM |  | 111 to 124 °C (dec.) |  |  | 
6 | O=C(CC1CCCO1)N1CCC(C2c3ncc(Br)cc3CCc3cc(Cl)cc(Br)c32)CC1 (centres unmarked) [Example 7] | 42 nM |  | 107 to 115 °C (dec.) |  |  | 
7 | O=C(CC1CCCCO1)N1CCC(C2c3ncc(Br)cc3CCc3cc(Cl)cc(Br)c32)CC1 (centres unmarked) [Example 8] | 2 nM |  | 116 to 122 °C (dec.) | 68 nM |  | 
8 | O=C(CC1CCOCC1)N1CCN([C@@H]2c3ccc(Cl)cc3CCc3cc(Br)cnc32)CC1 [Example 33] | 45 nM |  |  |  |  | 
9 | O=C(CN1CCOCC1)N1CCC([C@H]2c3ncc(Br)cc3CCc3cc(Cl)cc(Br)c32)CC1 [Example 36] | 3.1 nM |  |  |  |  | 
10 | O=C(CN1CCSCC1)N1CCC([C@H]2c3ncc(Br)cc3CCc3cc(Cl)cc(Br)c32)CC1 [Example 37] | 4.9 nM |  |  | < 10 nM |  | 
11 | O=C(CN1CC[S+]([O-])CC1)N1CCN(C2c3ccc(Cl)c(Br)c3CCc3cc(Br)cnc32)CC1 (centres unmarked) [Example 39] | 4.7 nM |  |  | 68 nM |  | 
12 | O=C(CC1CCOCC1)N1CCC([C@@H]2c3c(Br)cc(Cl)cc3CCc3cc(Br)c[n+]([O-])c32)CC1 [Example 40] | 2.2 nM |  | 141 to 151 °C (dec.) |  | 100% @ 10 | 8 nM
